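The compound was tested at five concentrations on cells cultured in 96-well plates, with a 48-hour exposure period. GI50 = concentration required for 50% inhibition of growth.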 Active and inactive are the calls of the source. No stated cut-off is given here; in the data, active = GI50 up to about 1.1 µM and inactive = higher.
Tests used:
Assay in all cases: NCI-60 cell line screen, 48 h
CCRF-CEM = tested on: CCRF-CEM
SF-295 = tested on: SF-295
HOP-62 = tested on: HOP-62
UACC-62 = tested on: UACC-62
OVCAR-3 = tested on: OVCAR-3
SK-OV-3 = tested on: SK-OV-3
SR = tested on: SR
U-251 = tested on: U-251
NCI-H522 = tested on: NCI-H522
LOX IMVI = tested on: LOX IMVI
OVCAR-8 = tested on: OVCAR-8
A549 = tested on: A549
A498 = tested on: A498
HCT-116 = tested on: HCT-116
786-0 = tested on: 786-0
CAKI-1 = tested on: CAKI-1
HCT-15 = tested on: HCT-15
SN12C = tested on: SN12C
MDA-MB-435 = tested on: MDA-MB-435
Hs-578T = tested on: Hs-578T

| Compound | GI50 (CCRF-CEM) | GI50 (SF-295) | GI50 (HOP-62) | GI50 (UACC-62) | GI50 (OVCAR-3) | GI50 (SK-OV-3) | GI50 (SR) | GI50 (U-251) | GI50 (NCI-H522) | GI50 (LOX IMVI) | GI50 (OVCAR-8) | GI50 (A549) | GI50 (A498) | GI50 (HCT-116) | GI50 (786-0) | GI50 (CAKI-1) | GI50 (HCT-15) [µM] | GI50 (SN12C) | GI50 (MDA-MB-435) | GI50 (Hs-578T) |
| --- | --- | --- | --- | --- | --- | --- | --- | --- | --- | --- | --- | --- | --- | --- | --- | --- | --- | --- | --- | --- |
| O=c1s[s+]([O-])c2ccccc12 (stereo unspecified) | 61.4 µM (inactive) | > 100 µM (inactive) | > 100 µM (inactive) | > 100 µM (inactive) | > 100 µM (inactive) | > 100 µM (inactive) | > 100 µM (inactive) | > 100 µM (inactive) | 39.4 µM (inactive) | 58.3 µM (inactive) | > 100 µM (inactive) | > 100 µM (inactive) | > 100 µM (inactive) | > 100 µM (inactive) | > 100 µM (inactive) | > 100 µM (inactive) | 72.9 | > 100 µM (inactive) | > 100 µM (inactive) | – |
| COc1ccc2c(c1O)[C@@]13CCCC=C1[C@@H](C2)[N+](C)(C)CC3 | > 100 µM (inactive) | > 100 µM (inactive) | > 100 µM (inactive) | > 100 µM (inactive) | 37.2 µM (inactive) | > 100 µM (inactive) | – | > 100 µM (inactive) | 63 µM (inactive) | > 100 µM (inactive) | > 100 µM (inactive) | > 100 µM (inactive) | – | > 100 µM (inactive) | > 100 µM (inactive) | > 100 µM (inactive) | > 100 | > 100 µM (inactive) | > 100 µM (inactive) | 77.3 µM (inactive) |
| O=C1C2C(C(=O)N1c1ccccc1)C1([N+](=O)[O-])C=C3c4ccccc4N(C(=O)c4ccccc4)C32C2C(=O)N(c3ccccc3)C(=O)C21 (stereo unspecified) | > 100 µM (inactive) | > 100 µM (inactive) | > 100 µM (inactive) | > 100 µM (inactive) | > 100 µM (inactive) | > 100 µM (inactive) | > 100 µM (inactive) | > 100 µM (inactive) | > 100 µM (inactive) | > 100 µM (inactive) | > 100 µM (inactive) | > 100 µM (inactive) | > 100 µM (inactive) | > 100 µM (inactive) | > 100 µM (inactive) | > 100 µM (inactive) | > 100 | > 100 µM (inactive) | – | – |
| [O-][S+](CCCl)c1c2ccccc2nc2ccccc12 (stereo unspecified) | 21.3 µM (inactive) | > 100 µM (inactive) | > 100 µM (inactive) | > 100 µM (inactive) | > 100 µM (inactive) | > 100 µM (inactive) | > 100 µM (inactive) | > 100 µM (inactive) | 8.45 µM (inactive) | 79.4 µM (inactive) | 85.1 µM (inactive) | > 100 µM (inactive) | > 100 µM (inactive) | 42.1 µM (inactive) | 50.2 µM (inactive) | 14.8 µM (inactive) | > 100 | 23.3 µM (inactive) | 84.9 µM (inactive) | – |
| CN(N)c1cc(=O)[nH]c(=O)[nH]1 | > 100 µM (inactive) | > 100 µM (inactive) | > 100 µM (inactive) | > 100 µM (inactive) | > 100 µM (inactive) | > 100 µM (inactive) | > 100 µM (inactive) | – | > 100 µM (inactive) | > 100 µM (inactive) | > 100 µM (inactive) | 54 µM (inactive) | > 100 µM (inactive) | > 100 µM (inactive) | > 100 µM (inactive) | 6.22 µM (inactive) | > 100 | > 100 µM (inactive) | – | 51.2 µM (inactive) |
| O=[N+]([O-])c1ccc(-n2nnc(C3=NCCN3)c2-c2ccccc2)cc1 | > 100 µM (inactive) | > 100 µM (inactive) | > 100 µM (inactive) | > 100 µM (inactive) | > 100 µM (inactive) | > 100 µM (inactive) | > 100 µM (inactive) | > 100 µM (inactive) | > 100 µM (inactive) | > 100 µM (inactive) | > 100 µM (inactive) | > 100 µM (inactive) | > 100 µM (inactive) | > 100 µM (inactive) | > 100 µM (inactive) | > 100 µM (inactive) | > 100 | > 100 µM (inactive) | – | – |
| N#CC1=C(Cl)NC(Cl)=C(C#N)C1c1ccc(Cl)cc1 | 25 µM (inactive) | 27.2 µM (inactive) | 18.1 µM (inactive) | 16.7 µM (inactive) | 14 µM (inactive) | 17.2 µM (inactive) | 21.7 µM (inactive) | 16.3 µM (inactive) | 13 µM (inactive) | 16.1 µM (inactive) | 16.2 µM (inactive) | 22.1 µM (inactive) | 32.4 µM (inactive) | 20.2 µM (inactive) | 15.8 µM (inactive) | 17.9 µM (inactive) | 15.4 | 16.9 µM (inactive) | – | – |
| COC(=O)c1c[nH]c2nc(N3CCOCC3)nn2c1=O | > 100 µM (inactive) | > 100 µM (inactive) | > 100 µM (inactive) | > 100 µM (inactive) | > 100 µM (inactive) | > 100 µM (inactive) | > 100 µM (inactive) | > 100 µM (inactive) | > 100 µM (inactive) | > 100 µM (inactive) | > 100 µM (inactive) | > 100 µM (inactive) | > 100 µM (inactive) | > 100 µM (inactive) | > 100 µM (inactive) | > 100 µM (inactive) | > 100 | > 100 µM (inactive) | – | – |

— ChEMBL document CHEMBL1201862, “PubChem BioAssay data set” (2004)
